Data from patent publication US11224565B2, “N-acyldipeptide derivatives and their uses” (NeoStrata Company, Inc., priority 2011, dated 2022).
Peptide text beside a SMILES is read from it.

Legend:
Type in all cases: in vivo, human
forearm skin = test: Skin thickness of forearm by micrometer calipers after topical application; settings: for increase in skin thickness of treated left forearm: 2% (w/v) in WEP442 topically twice daily, vehicle forearm no change
Description: In one of the studies related to skin changes associated with aging, skin thickness was measured by micrometer calipers as follows. The skin was grasped with a 2×6 cm metal hinge; the internal faces of which were coated with emery cloth to prevent slippage, and manually squeezed to threshold subject discomfort. Combined thickness of two whole-skin layers including thickness of the two hinge leaves was measured with micrometer calipers. Thickness of the two hinge leaves was subtracted to determine the actual thickness of two whole-skin layers. Triplicate measurements on treated sites were done and an average number was used for calculation of the skin thickness. In other studies, test sites of skin 17 mm in diameter were used, the circular sites were marked with permanent ink. Intervening control sites were also 17 mm in diameter. Thickness of skin of all sites was measured directly by means of an electronic digital caliper. In this instance the jaws of the caliper were opened to 17 mm, applied with pressure to the skin sites and then closed to firm tightness. Thickness of skin was then read off the screen of the calipers. Measurements of all sites were made in triplicates.

Nerve disorders = test: Summary of test results in volunteer subjects: nerve disorders; settings: efficacy grade
From the text: (§1) In one embodiment, a composition for topical application to test its therapeutic effect was formulated by dissolving a bioactive dipeptide derivative of the present invention in a solution prepared from 40 parts water, 40 parts ethanol and 20 parts propylene glycol by volume (WEP442). In another embodiment, a composition was formulated by dissolving a bioactive dipeptide derivative of the present invention in a non-aqueous solution prepared from 80 parts ethanol and 20 parts propylene glycol by volume (EP82). In yet another embodiment, a composition was formulated first by dissolving a bioactive dipeptide derivative of the present invention in a solution prepared from 80 parts water and 20 parts propylene glycol by volume (WP82), and the solution thus prepared was mixed with an oil-in-water emulsion or cream. In another embodiment, the volunteer subject topically applied the test compositions containing N-acyldipeptide derivatives of the present invention on involved skin or lesions once or twice daily for several weeks or until the involved lesions completely cleared and clinically changed to normal skin. As a control study, the subject also topically applied a vehicle control composition on the involved skin or lesions twice daily for the same period. In yet another embodiment, the volunteer subject topically applied once or twice daily the test compositions containing N-acyldipeptide derivatives of the present invention on the skin site above arthritic joints or painful muscles to provide therapeutic effects for the systemic disorders via topical administration. Some test results are summarized as follows. ND: Nerve disorders

[1] = tested on: Deranged immune disorders and inflammation; test: Summary of test results in volunteer subjects: deranged immune disorders and inflammation; settings: efficacy grade
From the text: In one embodiment, a composition for topical application to test its therapeutic effect was formulated by dissolving a bioactive dipeptide derivative of the present invention in a solution prepared from 40 parts water, 40 parts ethanol and 20 parts propylene glycol by volume (WEP442). In another embodiment, a composition was formulated by dissolving a bioactive dipeptide derivative of the present invention in a non-aqueous solution prepared from 80 parts ethanol and 20 parts propylene glycol by volume (EP82). In yet another embodiment, a composition was formulated first by dissolving a bioactive dipeptide derivative of the present invention in a solution prepared from 80 parts water and 20 parts propylene glycol by volume (WP82), and the solution thus prepared was mixed with an oil-in-water emulsion or cream. In another embodiment, the volunteer subject topically applied the test compositions containing N-acyldipeptide derivatives of the present invention on involved skin or lesions once or twice daily for several weeks or until the involved lesions completely cleared and clinically changed to normal skin. As a control study, the subject also topically applied a vehicle control composition on the involved skin or lesions twice daily for the same period. In yet another embodiment, the volunteer subject topically applied once or twice daily the test compositions containing N-acyldipeptide derivatives of the present invention on the skin site above arthritic joints or painful muscles to provide therapeutic effects for the systemic disorders via topical administration. Some test results are summarized as follows. DI: Deranged immune disorders and inflammation

[2] = tested on: inflammation, dermatitis, or eczema lesions; test: Topical application to chronic inflammation, dermatitis, eczema or allergic skin lesions, clinical evaluation; settings: chronic eczema, twice daily, 0.6% (w/w) N-Ac-L-Tyr-L-Tyr-NHNH2 cream on one set of lesions, 0.7% (w/w) N-Ac-L-Tyr-L-Tyr-NHNHAc cream on another
From the text: In another embodiment, the volunteer subject topically applied the test compositions containing N-acyldipeptide derivatives of the present invention on involved skin or lesions once or twice daily for several weeks or until the involved lesions completely cleared and clinically changed to normal skin. As a control study, the subject also topically applied a vehicle control composition on the involved skin or lesions twice daily for the same period.

[3] = tested on: Aging related changes of skin, nail and hair; test: Summary of test results in volunteer subjects: aging related changes; settings: efficacy grade
From the text: as §1, with “AG: Aging related changes of skin, nail and hair” for “ND: Nerve disorders”

Disturbed keratinization = test: Summary of test results in volunteer subjects: disturbed keratinization; settings: efficacy grade
From the text: as §1, with “DK: Disturbed keratinization” for “ND: Nerve disorders”

Row | Compound | appearance of treated left forearm at end of treatment (forearm skin; 1-3% (w/v) in WEP442 topically twice daily for 1-6 weeks as in the example, vehicle forearm still loose, thin and wrinkled) | increase in skin thickness of treated left forearm (forearm skin; after one week) | increase in skin thickness of treated left forearm (forearm skin; after three weeks) | increase in skin thickness of treated left forearm (forearm skin; after two weeks) | ND (Nerve disorders) | DI [1] | improvement as judged by clinical evaluation ([2]; two weeks) | itch after topical application [2] | AG [3] | DK (Disturbed keratinization)
1 | CC(=O)N[C@@H](Cc1ccc(O)cc1)C(=O)N[C@@H](Cc1ccc(O)cc1)C(=O)NN [N-Ac-L-Tyr-L-Tyr-NHNH2] (HELM PEPTIDE1{[ac].Y.Y.[NN[*:1]]}$$$$V2.0) | more firm, smooth, plump, and less wrinkled when lifted | 15% | 32% | 14% | 2+ (2+: 50% Efficacy) | 2+ (2+: 50% Efficacy) | 75% | stopped a few minutes after | 3+ (3+: 75% Efficacy) | 3+ (3+: 75% Efficacy)
2 | NC(=O)CNC(=O)[C@H](Cc1ccc(O)cc1)NC(=O)OCc1ccccc1 [N-Z-L-Tyr-Gly-NH2] | – | – | – | – | 2+ (2+: 50% Efficacy) | 2+ (2+: 50% Efficacy) | – | – | 2+ (2+: 50% Efficacy) | 2+ (2+: 50% Efficacy)
3 | CC(=O)N[C@@H](Cc1ccccc1)C(=O)N[C@@H](Cc1ccccc1)C(N)=O [N-Ac-L-Phe-L-Phe-NH2] (Ac-Phe-Phe-NH2) | – | – | – | – | 2+ (2+: 50% Efficacy) | 2+ (2+: 50% Efficacy) | – | – | 2+ (2+: 50% Efficacy) | 2+ (2+: 50% Efficacy)
4 | CC(=O)NCCC(=O)NCC(N)=O [N-Ac-β-Ala-Gly-NH2] | – | – | – | – | 2+ (2+: 50% Efficacy) | 2+ (2+: 50% Efficacy) | – | – | 2+ (2+: 50% Efficacy) | 2+ (2+: 50% Efficacy)
5 | CC[C@H](C)[C@H](NC(=O)[C@H](C)NC(C)=O)C(N)=O [N-Ac-L-Ala-L-Ile-NH2] (Ac-Ala-Ile-NH2) | – | – | – | – | 3+ (3+: 75% Efficacy) | 3+ (3+: 75% Efficacy) | – | – | 2+ (2+: 50% Efficacy) | 2+ (2+: 50% Efficacy)
6 | CC(=O)N[C@@H](CS)C(=O)NCC(N)=O [N-Ac-L-Cys-Gly-NH2] | – | – | – | – | 2+ (2+: 50% Efficacy) | 2+ (2+: 50% Efficacy) | – | – | 2+ (2+: 50% Efficacy) | 2+ (2+: 50% Efficacy)
7 | CC(=O)NCCCC(=O)NCC(N)=O [N-Ac-Gaba-Gly-NH2] | – | – | – | – | 2+ (2+: 50% Efficacy) | 2+ (2+: 50% Efficacy) | – | – | 2+ (2+: 50% Efficacy) | 2+ (2+: 50% Efficacy)
8 | CC(=O)N[C@@H](Cc1c[nH]cn1)C(=O)NCC(N)=O [N-Ac-L-His-Gly-NH2] (Ac-His-Gly-NH2) | – | – | – | – | 2+ (2+: 50% Efficacy) | 2+ (2+: 50% Efficacy) | – | – | 2+ (2+: 50% Efficacy) | 2+ (2+: 50% Efficacy)
9 | CC(=O)N[C@@H](CC(C)C)C(=O)N[C@@H](CC(C)C)C(N)=O [N-Ac-L-Leu-L-Leu-NH2] | – | – | – | – | 2+ (2+: 50% Efficacy) | 2+ (2+: 50% Efficacy) | – | – | 2+ (2+: 50% Efficacy) | 2+ (2+: 50% Efficacy)
10 | CC(=O)N[C@H](C(=O)N[C@@H](C)C(=O)O)C(C)C [N-Ac-L-Val-L-Ala-OH] (Ac-Val-Ala-OH) | – | – | – | – | 4+ (4+: 95-100% Efficacy) | 3+ (3+: 75% Efficacy) | – | – | 2+ (2+: 50% Efficacy) | 2+ (2+: 50% Efficacy)
11 | CC[C@H](C)[C@H](NC(C)=O)C(=O)N[C@@H](C)C(=O)O [N-Ac-L-Ile-L-Ala-OH] (Ac-Ile-Ala-OH) | – | – | – | – | 2+ (2+: 50% Efficacy) | 2+ (2+: 50% Efficacy) | – | – | 2+ (2+: 50% Efficacy) | 2+ (2+: 50% Efficacy)
12 | CC(=O)N[C@@H](Cc1ccc(O)cc1)C(=O)NCC(N)=O [N-Ac-L-Tyr-Gly-NH2] | – | – | – | – | 2+ (2+: 50% Efficacy) | 2+ (2+: 50% Efficacy) | – | – | 2+ (2+: 50% Efficacy) | 2+ (2+: 50% Efficacy)
13 | CC(=O)N[C@@H](CC(C)C)C(=O)NCC(=O)O [N-Ac-L-Leu-Gly-OH] (Ac-Leu-Gly-OH) | – | – | – | – | 3+ (3+: 75% Efficacy) | 3+ (3+: 75% Efficacy) | – | – | 2+ (2+: 50% Efficacy) | 2+ (2+: 50% Efficacy)
14 | CCC(=O)N[C@H](C(=O)N[C@@H](C)C(=O)O)C(C)C [N-Pr-L-Val-L-Ala-OH] (HELM PEPTIDE1{[CCC(=O)[*:2]].V.A}$$$$V2.0) | – | – | – | – | 4+ (4+: 95-100% Efficacy) | 3+ (3+: 75% Efficacy) | – | – | 2+ (2+: 50% Efficacy) | 2+ (2+: 50% Efficacy)
